Source: PubChem BioAssay (NCI)
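Interpolation was linear, between the two tested concentrations surrounding the appropriate level; five concentrations were tested over 48 hours in 96-well plates. The concentration for 50% growth inhibition is given as GI50. TGI is the concentration that stops growth completely.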

What was measured:
Test in all cases: NCI tumour cell line growth inhibition, 48 h
786-0 renal = system: 786-0 renal
A498 renal = system: A498 renal
A549 NSCLC = system: A549 NSCLC
ACHN renal = system: ACHN renal
BT-549 breast = system: BT-549 breast
CAKI-1 renal = system: CAKI-1 renal
CCRF-CEM leukemia = system: CCRF-CEM leukemia
COLO 205 colon = system: COLO 205 colon
DU-145 prostate = system: DU-145 prostate
HCC-2998 colon = system: HCC-2998 colon
HCT-116 colon = system: HCT-116 colon
HCT-15 colon = system: HCT-15 colon
HL-60(TB) leukemia = system: HL-60(TB) leukemia
HOP-62 NSCLC = system: HOP-62 NSCLC
HOP-92 NSCLC = system: HOP-92 NSCLC
HS 578T breast = system: HS 578T breast
HT29 colon = system: HT29 colon
IGROV1 ovarian = system: IGROV1 ovarian
K-562 leukemia = system: K-562 leukemia
KM12 colon = system: KM12 colon
LOX IMVI melanoma = system: LOX IMVI melanoma
MALME-3M melanoma = system: MALME-3M melanoma
MCF7 breast = system: MCF7 breast
MDA-MB-231 breast = system: MDA-MB-231 breast
MDA-MB-435 = system: MDA-MB-435
MOLT-4 leukemia = system: MOLT-4 leukemia
NCI-H226 lung = system: NCI-H226 lung
NCI-H23 lung = system: NCI-H23 lung
NCI-H460 lung = system: NCI-H460 lung
NCI-H522 lung = system: NCI-H522 lung
NCI/ADR-RES ovarian = system: NCI/ADR-RES ovarian
OVCAR-3 ovarian = system: OVCAR-3 ovarian
OVCAR-4 ovarian = system: OVCAR-4 ovarian
OVCAR-5 ovarian = system: OVCAR-5 ovarian
OVCAR-8 ovarian = system: OVCAR-8 ovarian
PC-3 prostate = system: PC-3 prostate
RPMI-8226 leukemia = system: RPMI-8226 leukemia
RXF 393 renal = system: RXF 393 renal
SF-268 CNS = system: SF-268 CNS
SF-295 CNS = system: SF-295 CNS
SF-539 CNS = system: SF-539 CNS
SK-MEL-2 melanoma = system: SK-MEL-2 melanoma
SK-MEL-28 melanoma = system: SK-MEL-28 melanoma
SK-MEL-5 melanoma = system: SK-MEL-5 melanoma
SK-OV-3 ovarian = system: SK-OV-3 ovarian
SN12C renal = system: SN12C renal
SNB-19 CNS = system: SNB-19 CNS
SNB-75 CNS = system: SNB-75 CNS
SR leukemia = system: SR leukemia
SW-620 colon = system: SW-620 colon
T-47D breast = system: T-47D breast
TK-10 renal = system: TK-10 renal
U251 CNS = system: U251 CNS
UACC-257 melanoma = system: UACC-257 melanoma
UACC-62 melanoma = system: UACC-62 melanoma
UO-31 renal = system: UO-31 renal

In the case of `CCOc1ccc(Nc2ccnc3cc(Cl)ccc23)cc1`, the GI50 (786-0 renal) is reported as 41.1 µM, the TGI (786-0 renal) is reported as > 100 µM and the GI50 (A498 renal) is reported as 2.61 µM. The TGI (A498 renal) was > 100 µM, the GI50 (A549 NSCLC) was > 100 µM and the TGI (A549 NSCLC) was > 100 µM. The GI50 (ACHN renal) was 49.6 µM, the TGI (ACHN renal) was > 100 µM and the GI50 (BT-549 breast) was > 100 µM. The TGI (BT-549 breast) was > 100 µM, the GI50 (CAKI-1 renal) was > 100 µM and the TGI (CAKI-1 renal) was > 100 µM. For the same compound, the GI50 (CCRF-CEM leukemia) was > 100 µM, the TGI (CCRF-CEM leukemia) was > 100 µM and the GI50 (COLO 205 colon) was > 100 µM. The TGI (COLO 205 colon) was > 100 µM, the GI50 (DU-145 prostate) was > 100 µM and the TGI (DU-145 prostate) was > 100 µM. The GI50 (HCC-2998 colon) was > 100 µM, the TGI (HCC-2998 colon) was > 100 µM and the GI50 (HCT-116 colon) was 35 µM. For the same compound, the TGI (HCT-116 colon) was > 100 µM, the GI50 (HCT-15 colon) was 4.38 µM and the TGI (HCT-15 colon) was > 100 µM. The GI50 (HL-60(TB) leukemia) was > 100 µM, the TGI (HL-60(TB) leukemia) was > 100 µM and the GI50 (HOP-62 NSCLC) was > 100 µM. The TGI (HOP-62 NSCLC) was > 100 µM, the GI50 (HOP-92 NSCLC) was 16.1 µM and the TGI (HOP-92 NSCLC) was > 100 µM. The GI50 (HS 578T breast) was 38.6 µM, the TGI (HS 578T breast) was > 100 µM and the GI50 (HT29 colon) was 3.88 µM. The TGI (HT29 colon) was > 100 µM, the GI50 (IGROV1 ovarian) was > 100 µM and the TGI (IGROV1 ovarian) was > 100 µM. The GI50 (K-562 leukemia) was 32.3 µM, the TGI (K-562 leukemia) was > 100 µM and the GI50 (KM12 colon) was 84.1 µM. The TGI (KM12 colon) was > 100 µM, the GI50 (LOX IMVI melanoma) was 41.9 µM and the TGI (LOX IMVI melanoma) was > 100 µM. The GI50 (MALME-3M melanoma) was > 100 µM, the TGI (MALME-3M melanoma) was > 100 µM and the GI50 (MCF7 breast) was 34.5 µM. For the same compound, the TGI (MCF7 breast) was > 100 µM, the GI50 (MDA-MB-231 breast) was > 100 µM and the TGI (MDA-MB-231 breast) was > 100 µM. For the same compound, the GI50 (MDA-MB-435) was > 100 µM, the TGI (MDA-MB-435) was > 100 µM and the GI50 (MOLT-4 leukemia) was > 100 µM. The TGI (MOLT-4 leukemia) was > 100 µM, the GI50 (NCI-H226 lung) was 79.7 µM and the TGI (NCI-H226 lung) was > 100 µM. The GI50 (NCI-H23 lung) was > 100 µM, the TGI (NCI-H23 lung) was > 100 µM and the GI50 (NCI-H460 lung) was 29.1 µM. The TGI (NCI-H460 lung) was > 100 µM, the GI50 (NCI-H522 lung) was 26.4 µM and the TGI (NCI-H522 lung) was 86.6 µM. For the same compound, the GI50 (NCI/ADR-RES ovarian) was > 100 µM, the TGI (NCI/ADR-RES ovarian) was > 100 µM and the GI50 (OVCAR-3 ovarian) was > 100 µM. The TGI (OVCAR-3 ovarian) was > 100 µM, the GI50 (OVCAR-4 ovarian) was 78.3 µM and the TGI (OVCAR-4 ovarian) was > 100 µM. The GI50 (OVCAR-5 ovarian) was 8.02 µM, the TGI (OVCAR-5 ovarian) was > 100 µM and the GI50 (OVCAR-8 ovarian) was 79.9 µM. For the same compound, the TGI (OVCAR-8 ovarian) was > 100 µM, the GI50 (PC-3 prostate) was > 100 µM and the TGI (PC-3 prostate) was > 100 µM. The GI50 (RPMI-8226 leukemia) was > 100 µM, the TGI (RPMI-8226 leukemia) was > 100 µM and the GI50 (RXF 393 renal) was 72.3 µM. The TGI (RXF 393 renal) was > 100 µM, the GI50 (SF-268 CNS) was 57 µM and the TGI (SF-268 CNS) was > 100 µM. For the same compound, the GI50 (SF-295 CNS) was 34.4 µM, the TGI (SF-295 CNS) was > 100 µM and the GI50 (SF-539 CNS) was 29.4 µM. For the same compound, the TGI (SF-539 CNS) was > 100 µM, the GI50 (SK-MEL-2 melanoma) was > 100 µM and the TGI (SK-MEL-2 melanoma) was > 100 µM. The GI50 (SK-MEL-28 melanoma) was > 100 µM, the TGI (SK-MEL-28 melanoma) was > 100 µM and the GI50 (SK-MEL-5 melanoma) was > 100 µM. The TGI (SK-MEL-5 melanoma) was > 100 µM, the GI50 (SK-OV-3 ovarian) was > 100 µM and the TGI (SK-OV-3 ovarian) was > 100 µM. For the same compound, the GI50 (SN12C renal) was > 100 µM, the TGI (SN12C renal) was > 100 µM and the GI50 (SNB-19 CNS) was > 100 µM. The TGI (SNB-19 CNS) was > 100 µM, the GI50 (SNB-75 CNS) was 17 µM and the TGI (SNB-75 CNS) was 51.2 µM. For the same compound, the GI50 (SR leukemia) was 14.7 µM, the TGI (SR leukemia) was > 100 µM and the GI50 (SW-620 colon) was > 100 µM. The TGI (SW-620 colon) was > 100 µM, the GI50 (T-47D breast) was > 100 µM and the TGI (T-47D breast) was > 100 µM. For the same compound, the GI50 (TK-10 renal) was > 100 µM, the TGI (TK-10 renal) was > 100 µM and the GI50 (U251 CNS) was > 100 µM. For the same compound, the TGI (U251 CNS) was > 100 µM, the GI50 (UACC-257 melanoma) was > 100 µM and the TGI (UACC-257 melanoma) was > 100 µM. The GI50 (UACC-62 melanoma) was > 100 µM, the TGI (UACC-62 melanoma) was > 100 µM and the GI50 (UO-31 renal) was > 100 µM. For the same compound, the TGI (UO-31 renal) was > 100 µM.
